Experiment [1] relates to Os02g0589400 recombinant protein. Put plainly: In vitro enzymatic activity of Os02g0589400 (glycosylation of isoorientin with UDPG, UPLC-QTOF/MS). Type of experiment: biochemical, Oryza sativa L. ssp. japonica cv. Zhonghua 11 (ZH11). The following applies: glycosyl donor UDPG, Tris-HCl pH 7.0, 30° C., 1 hour. The protocol:
The enzymatic activity reaction system was: 38 μL of Tris-HCl (pH 7.0, 50 mM, containing 10 mM DTT), 1 μL of 10 mM glycosyl receptor (the glycosyl receptor of Os02g0589400 is isoorientin), 1 μL of 100 mM glycosyl donor (UDPG), and 10 μL of 2.03 μg/μL of recombinant protein of Os02g0589400 obtained in (2). React in water bath at 30° C. for 1 hour, and then stop the reaction with equal volume of methanol. A sample containing protein obtained from E. coli into which a pMAL-c2X mock vector was transferred according to the above step (2) was taken as the negative control. Centrifuge at 12,000 rpm, 4° C. for 10 min, 30 μL of the resulting supernatant was taken and measured by UPLC-QTOF/MS, and the measuring method was the same as that shown in Example 1.

The subject of another experiment is Echinochloa crus-galli. Put plainly: External application of the compound to Echinochloa crus-galli seeds on agar medium, radicle and embryo length. Type of experiment: in vivo. The following applies: 500 mg/L in 0.8% agar, 28° C., 3 days in the dark, 3 biological repeats. The protocol:
I. Procedures for External Application of the Compound to Lettuce and Echinochloa crus-galli Compounds to be tested: isoorientin and isoorientin-2″-O-glucopyranoside. (1) The compounds to be tested were dried into powder with a centrifugal concentrator and weighed, a proper amount of sterile water was added to make its final concentration to be 10 mg/mL. (2) 500 mL of 0.8% agar was prepared and sterilized in an autoclave. […] solution of the compounds to be tested at a concentration of 10 mg/mL were added to make the final concentration of the compounds to be 500 mg/L. The medium containing the compound to be tested was quickly poured into a 10 cm×10 cm square dish, and the square dish was shaken quickly so that the medium was evenly spread in the square dish. The medium added with equal amount of sterile water was used as control. (4) The seeds of Echinochloa crus-galli were washed with distilled water for several times, and then placed on sterile filter paper to dry. (5) After the medium had solidified, the seeds of Echinochloa crus-galli were placed with sterile tweezers on the medium, and 26 seeds were placed in each petri dish (2 rows, with 13 seeds in each row). Each treatment had 3 biological repeats. (6) The petri dishes were placed in an incubator at 28° C. for 3 days in the dark. (7) Phenotypic statistics: after 3 days, the length of radicle and embryo of each treated material were counted.

On to `O=c1cc(-c2ccc(O)c(O)c2)oc2cc(O)c([C@@H]3O[C@H](CO)[C@@H](O)[C@H](O)[C@H]3O)c(O)c12` [isoorientin], for which the “glycosylation of the glycosyl receptor by Os02g0589400 recombinant protein compared with the mock control” value in experiment [1] is “could catalyze isoorientin to produce isoorientin-2″-O-glucopyranoside”. In the experiment with Echinochloa crus-galli, the “embryo length of Echinochloa crus-galli compared with the control” value is “no significant difference” and the “radicle length of Echinochloa crus-galli compared with the control” value is listed as “significantly shortened”.
On to `O=c1cc(-c2ccc(O)c(O)c2)oc2cc(O)c([C@@H]3O[C@H](CO)[C@@H](O)[C@H](O)[C@H]3O[C@@H]3O[C@H](CO)[C@@H](O)[C@H](O)[C@H]3O)c(O)c12` [isoorientin-2″-O-glucopyranoside], for which, in the experiment on Echinochloa crus-galli, the “embryo length of Echinochloa crus-galli compared with the control” value is “no significant difference” and the “radicle length of Echinochloa crus-galli compared with the control” value is on record as “no significant difference”.

Values taken from patent US20250134102A1, “USE OF FLAVONOID GLYCOSIDE IN RESISTANCE OF WEEDS IN RICE” (INSTITUTE OF BOTANY, THE CHINESE ACADEMY OF SCIENCE, priority 2021, published 2025).
